Results reported in US9707231B2, “Compositions and methods for reduction of amyloid-beta load” (Modgene, LLC, priority 2011, dated 2017).
Several values for one entry are separate records, joined by “and”; a condition that tells them apart may be missing. Equal entries are not always repeated. Structures can show the parent of a compound that is named as a salt. Where two headings read alike, the source gives them in different places.

Assays:
[1] = cited from earlier work
[2] = cited from earlier work; remark: listed apart in the source
Aβ [3] = assay: Aβ in media of SYSY-APP cells, Covance ELISA; format: cell-based
Protocol: • 1. Thaw SYSY-APP cells, add to warmed high glucose DMEM with 10% serum, pen-strep in t-75 flask. In 2 days, split culture into 4 flasks. Collect cells from 3 and freeze in liquid N2. Use remaining culture for experiment. • 2. Seed 24-well plate with cells in same media. Grow to confluence. • 3. […] After 16 hr incubation, isolate media, add 10 ul protease inhibitor and spin out cells and debris (3000×g); • 4.

[4] = cited from earlier work; remark: listed apart in the source
Abl kinase = biological target: T1, Abl kinase (Homo sapiens, UniProt P00519); assay: Abl kinase activity, 32P-ATP / Abltide peptide, scintillation counting; format: biochemical; settings: for Abl kinase activity, CPM (single assay): duplicates 1 and 2
T1 construct: purchased Millipore, Temecula, Calif
Protocol: The following were combined in order:
10 μL 2.5× kinase assay buffer
2.5 μL Abl kinase (Millipore, Temecula, Calif.)
1 μL DMSO vehicle or inhibitor in DMSO on ice
2.5 μL Abltide synthetic peptide substrate, biotin-tagged (Millipore, Temecula, Calif.) • Incubate at 30° C. for 10 min.; • Stop by the addition of 12.5 μL 7.5M guanidine HCL to each reaction, vortex. • Spot 12.5 μL on SAM2 biotin capture membrane (Promega Corp., Madison, Wis.) • Wash the membrane (4×2M NaCl; 4×2M NaCl, 1% H3PO4, 2×H2O, at room temp.) • Kinase activity was determined by scintillation counting. • The Scintillation count: final drug concentration shown • Each assay was performed in duplicate.

Aβ [5] = system: Aβ
Protocol: Wild-type C57B1/6 and DBA/2J male mice (age 8-12 weeks) were administered drug or vehicle twice daily for 7 days by intraperitoneal injection.
Animals were sacrificed 12 hr after the last injection. Individual mice were anesthetized with isoflurane and blood samples (100-300 ul) taken by cardiac puncture with heparinized syringes. Samples were placed on ice for 30 minutes in the presence of EDTA and then centrifuged for 20 minutes at 16,000×g at 4° C. The plasma fraction was removed and stored at −80° C. Brains were removed and frozen rapidly on dry ice and stored at −80° C.
Detection of mouse Aβ1-40 in blood and brain samples was performed by using a commercially available immunoassay kit (Biosource mouse Aβ1-40, Catalog No. KMB3481, Invitrogen, Carlsbad, Calif.) or by Western blot. Mouse brain samples were prepared by homogenizing brain tissue in a polytron in the presence of 5M guanidine HCl and 50 mM Tris HCl, pH 8.0 as described in the assay protocol.
Blood samples were diluted 1:5 in standard diluent buffer. Samples were assayed in duplicate and OD450 measured on a Tecan infinite 2000 plate reader.
For Western blots, samples were subjected to P AGE analysis, transferred to PVDF membranes and the Aβ hexamers were visualized using a monoclonal antibody 4G8 directed against mouse Aβ (1:1,000; Covance) using the manufacturer's recommended protocol. Blots were scanned by densitometry, and then reprobed with an antibody to histone H3 (1:50,000; Abcam) as a loading and transfer control. Data are depicted as normalized optical density.

[6] = 20 mg/kg IP twice daily 7 days, young and old B mice

T1 sequence (P00519 whole entry): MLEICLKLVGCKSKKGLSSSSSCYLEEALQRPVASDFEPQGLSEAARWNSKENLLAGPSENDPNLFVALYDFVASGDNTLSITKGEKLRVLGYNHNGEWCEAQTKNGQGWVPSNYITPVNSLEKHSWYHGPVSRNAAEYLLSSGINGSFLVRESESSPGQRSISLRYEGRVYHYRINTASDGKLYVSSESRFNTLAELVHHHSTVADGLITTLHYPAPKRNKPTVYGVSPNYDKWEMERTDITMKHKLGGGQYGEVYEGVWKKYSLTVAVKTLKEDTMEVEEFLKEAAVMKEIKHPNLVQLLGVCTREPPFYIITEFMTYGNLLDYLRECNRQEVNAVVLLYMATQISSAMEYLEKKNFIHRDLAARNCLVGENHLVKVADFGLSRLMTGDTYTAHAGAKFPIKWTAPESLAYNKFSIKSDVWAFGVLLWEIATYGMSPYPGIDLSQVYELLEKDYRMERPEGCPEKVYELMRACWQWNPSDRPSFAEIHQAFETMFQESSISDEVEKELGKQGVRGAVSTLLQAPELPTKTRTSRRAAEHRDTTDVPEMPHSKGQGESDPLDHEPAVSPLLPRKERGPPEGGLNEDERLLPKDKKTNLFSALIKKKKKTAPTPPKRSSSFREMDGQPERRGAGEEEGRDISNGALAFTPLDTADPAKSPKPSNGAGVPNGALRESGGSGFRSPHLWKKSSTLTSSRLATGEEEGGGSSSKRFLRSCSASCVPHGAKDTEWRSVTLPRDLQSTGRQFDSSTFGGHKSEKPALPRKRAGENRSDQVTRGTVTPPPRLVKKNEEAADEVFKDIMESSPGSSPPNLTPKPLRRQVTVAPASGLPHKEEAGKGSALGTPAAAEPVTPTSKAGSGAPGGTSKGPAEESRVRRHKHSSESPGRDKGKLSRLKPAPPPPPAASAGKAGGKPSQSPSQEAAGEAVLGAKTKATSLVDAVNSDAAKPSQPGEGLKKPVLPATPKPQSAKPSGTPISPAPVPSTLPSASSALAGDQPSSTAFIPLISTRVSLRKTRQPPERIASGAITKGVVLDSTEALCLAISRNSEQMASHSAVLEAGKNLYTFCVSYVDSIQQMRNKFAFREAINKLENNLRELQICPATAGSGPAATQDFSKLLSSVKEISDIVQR

COc1cc([S+](C)[O-])ccc1-c1nc2ncccc2[nH]1 (stereo not drawn) [ARL115, sulmazole]
CNS side effects (in words) ([1]; humans): lack the CNS side effects | log P, calcd. ([2]; calculated value): 1.82

COc1ccc(-c2nc3ncccc3[nH]2)c(OC)c1.Cl [ARL-57]
CNS side effects (in words) ([1]; in vivo): spectacular bright color vision | log P ([2]; pH 8): 2.59

Cc1cc(NC(=O)c2ccc(CN3CCN(C)CC3)cc2)ccc1Nc1nccc(-c2cccnc2)n1 [Imatinib para-diaminomethylbenzene 3 HCl]
effect on Aβ concentration (in words) (Aβ [3]; 3-100 μM, 150 μL media supernatant, FIG. 7): stronger inhibition of Aβ than does imatinib

Cc1ccc(NC(=O)c2ccc(CN3CCNCC3)cc2)cc1Nc1nccc(-c2cccnc2)n1 [N-desmethyl imatinib]
plasma AUC of the metabolite as share of the AUC for imatinib ([4]; humans): about 15% | elimination half-life ([4]; oral administration in healthy volunteers): ~40 h | Abl kinase activity, CPM (single assay) (Abl kinase; 10 μM final drug concentration, DMSO vehicle 2837/2956): 540 CPM and 649 CPM | Abl kinase activity, AVERAGE of the two assays (Abl kinase; 10 μM, DMSO vehicle average 2897): 595 CPM | Abl kinase activity, AVERAGE of the two assays (Abl kinase; 30 μM): 149 CPM | Abl kinase activity, CPM (single assay) (Abl kinase; 30 μM final drug concentration): 149 CPM | Abl kinase activity, AVERAGE of the two assays (Abl kinase; 100 μM): 107 CPM | Abl kinase inhibition (in words) (Abl kinase; concentrations 10 to 100 μM, FIG. 8): inhibits Abl kinase less than does imatinib | reduction of Aβ compared with imatinib (in words) (Aβ [3]; 3-100 uM, 16 hr, 100 μL aliquot, FIG. 6): more effective reduction of Aβ than does imatinib

Cc1ccc(NC(=O)c2ccc(CN3CCN(C)CC3)cc2)cc1Nc1nccc(-c2cccnc2)n1 [STI-571]
reduction of brain levels of Aβ (Aβ [5]; [6]): approximately 50% | reduction of plasma levels of Aβ (Aβ [5]; [6]): approximately 50% | reduction of circulating (plasma) Aβ (Aβ [5]; highest dose (100 mg/kg) IP twice daily 7 days, young D2 mice): approximately 75%

Cc1ccc(NC(=O)c2ccc(CN3CCN(C)CC3)cc2)cc1Nc1nccc(-c2cccnc2)n1 [imatinib, reference compound]
Cmax (time) ([4]; oral administration in pediatric patients): 2 to 4 h
